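Compound exposure: 48 hours, 5 concentrations, 96-well plates. TGI: concentration producing complete growth inhibition.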
system: RPMI-8226 leukemia; assay: NCI anticancer screen, dose series, 48 h

| Structure (SMILES) | TGI [µM] |
| --- | --- |
| CCCN(CCC)CCc1ccc(OC2=CCN(C)CC2)cc1 | > 100 |
| O=C1OCN(c2ccccc2)C12CCN(Cc1ccccc1)CC2 | 89 |
| Cn1c2ccc([N+](=O)[O-])cc2c(=O)n1Cc1ccccc1F | > 100 |
| Cn1c(=O)c2c3ccccc3n(C)c2n(C)c1=O | > 100 |
| CN(Cc1cnc2nc(N)nc(N)c2n1)c1ccc(C(=O)NCCS(=O)(=O)O)cc1 | > 100 |
| COc1cc(NC(C)c2ccc3c(c2)OCCO3)cc(OC)c1OC (stereo not drawn) | 84.6 |
| Cc1cccc2oc3c(CC(=O)O)cccc3c(=O)c12 | > 100 |
| N#CC(C#N)=C1C(=Cc2ccc(OCCCCCCCCCCSSCCCCCCCCCCOc3ccc(C=C4C(=C(C#N)C#N)c5ccccc5C4=C(C#N)C#N)cc3)cc2)C(=C(C#N)C#N)c2ccccc21 | > 100 |
| O=c1c2cccnc2n2n1Cc1ccccc1C2 | > 100 |
| S=c1nc2sc3c(c2c(Nc2ccc(Cl)cc2)[nH]1)CCCC3 | 72.4 |
| CSC1=C(C#N)C(=S)N=C(N)C1C(=O)Nc1ccc(C)cc1 (stereo not drawn) | > 100 |
| O=c1ccn([C@@H]2C[C@H]2CO)c(=O)[nH]1 | > 100 |
| C=C(C)[C@@H]1CCC2=C[C@@H](OC2=O)[C@@H](C(=C)C)C2=CC(C(=O)O)=C(C1)O2 | > 100 |
| CSC(=N/C=C/c1ccccc1)SC | > 100 |
| c1ccc(C(C2=Nc3cccc4cccc(c34)N2)c2ccccc2)cc1 | > 100 |
| COC(=O)NC(Nc1ccccn1)(C(F)(F)F)C(F)(F)F | > 100 |
| O=C(OCc1ccccc1)N(CCCCN(CCCNC(=O)C(F)(F)F)C(=O)OCc1ccccc1)CCCNC(=O)C(F)(F)F | > 100 |
| Nc1ncc(Br)c(NCC2(CO)CCC2)n1 | > 100 |
| C=CCC1(O)CC(n2cc(C)c(=O)[nH]c2=O)OC1CO[Si](C)(C)C(C)(C)C (stereo not drawn) | 97.7 |
| NC(=O)C(=CNC(N)=S)C(N)=O | > 100 |

system: HOP-62 NSCLC; assay: NCI anticancer screen, dose series, 48 h

| Structure (SMILES) | TGI [µM] |
| --- | --- |
| CCCN(CCC)CCc1ccc(OC2=CCN(C)CC2)cc1 | > 100 |
| O=C1OCN(c2ccccc2)C12CCN(Cc1ccccc1)CC2 | > 100 |
| Cn1c2ccc([N+](=O)[O-])cc2c(=O)n1Cc1ccccc1F | > 100 |
| Cn1c(=O)c2c3ccccc3n(C)c2n(C)c1=O | > 100 |
| CN(Cc1cnc2nc(N)nc(N)c2n1)c1ccc(C(=O)NCCS(=O)(=O)O)cc1 | > 100 |
| COc1cc(NC(C)c2ccc3c(c2)OCCO3)cc(OC)c1OC (stereo not drawn) | > 100 |
| Cc1cccc2oc3c(CC(=O)O)cccc3c(=O)c12 | > 100 |
| N#CC(C#N)=C1C(=Cc2ccc(OCCCCCCCCCCSSCCCCCCCCCCOc3ccc(C=C4C(=C(C#N)C#N)c5ccccc5C4=C(C#N)C#N)cc3)cc2)C(=C(C#N)C#N)c2ccccc21 | 47.6 |
| O=c1c2cccnc2n2n1Cc1ccccc1C2 | > 100 |
| S=c1nc2sc3c(c2c(Nc2ccc(Cl)cc2)[nH]1)CCCC3 | > 100 |
| O=c1ccn([C@@H]2C[C@H]2CO)c(=O)[nH]1 | > 100 |
| C=C(C)[C@@H]1CCC2=C[C@@H](OC2=O)[C@@H](C(=C)C)C2=CC(C(=O)O)=C(C1)O2 | > 100 |
| CSC(=N/C=C/c1ccccc1)SC | > 100 |
| c1ccc(C(C2=Nc3cccc4cccc(c34)N2)c2ccccc2)cc1 | 56.6 |
| COC(=O)NC(Nc1ccccn1)(C(F)(F)F)C(F)(F)F | > 100 |
| O=C(OCc1ccccc1)N(CCCCN(CCCNC(=O)C(F)(F)F)C(=O)OCc1ccccc1)CCCNC(=O)C(F)(F)F | > 100 |
| Nc1ncc(Br)c(NCC2(CO)CCC2)n1 | > 100 |
| C=CCC1(O)CC(n2cc(C)c(=O)[nH]c2=O)OC1CO[Si](C)(C)C(C)(C)C (stereo not drawn) | > 100 |
| NC(=O)C(=CNC(N)=S)C(N)=O | > 100 |

system: LOX IMVI melanoma; assay: NCI anticancer screen, dose series, 48 h

| Structure (SMILES) | TGI [µM] |
| --- | --- |
| CCCN(CCC)CCc1ccc(OC2=CCN(C)CC2)cc1 | 89.8 |
| O=C1OCN(c2ccccc2)C12CCN(Cc1ccccc1)CC2 | 30.4 |
| Cn1c2ccc([N+](=O)[O-])cc2c(=O)n1Cc1ccccc1F | > 100 |
| Cn1c(=O)c2c3ccccc3n(C)c2n(C)c1=O | > 100 |
| CN(Cc1cnc2nc(N)nc(N)c2n1)c1ccc(C(=O)NCCS(=O)(=O)O)cc1 | > 100 |
| COc1cc(NC(C)c2ccc3c(c2)OCCO3)cc(OC)c1OC (stereo not drawn) | > 100 |
| Cc1cccc2oc3c(CC(=O)O)cccc3c(=O)c12 | > 100 |
| N#CC(C#N)=C1C(=Cc2ccc(OCCCCCCCCCCSSCCCCCCCCCCOc3ccc(C=C4C(=C(C#N)C#N)c5ccccc5C4=C(C#N)C#N)cc3)cc2)C(=C(C#N)C#N)c2ccccc21 | 35.6 |
| O=c1c2cccnc2n2n1Cc1ccccc1C2 | > 100 |
| S=c1nc2sc3c(c2c(Nc2ccc(Cl)cc2)[nH]1)CCCC3 | > 100 |
| CSC1=C(C#N)C(=S)N=C(N)C1C(=O)Nc1ccc(C)cc1 (stereo not drawn) | > 100 |
| O=c1ccn([C@@H]2C[C@H]2CO)c(=O)[nH]1 | > 100 |
| C=C(C)[C@@H]1CCC2=C[C@@H](OC2=O)[C@@H](C(=C)C)C2=CC(C(=O)O)=C(C1)O2 | > 100 |
| CSC(=N/C=C/c1ccccc1)SC | > 100 |
| c1ccc(C(C2=Nc3cccc4cccc(c34)N2)c2ccccc2)cc1 | 37.3 |
| COC(=O)NC(Nc1ccccn1)(C(F)(F)F)C(F)(F)F | > 100 |
| O=C(OCc1ccccc1)N(CCCCN(CCCNC(=O)C(F)(F)F)C(=O)OCc1ccccc1)CCCNC(=O)C(F)(F)F | > 100 |
| Nc1ncc(Br)c(NCC2(CO)CCC2)n1 | > 100 |
| C=CCC1(O)CC(n2cc(C)c(=O)[nH]c2=O)OC1CO[Si](C)(C)C(C)(C)C (stereo not drawn) | 89.6 |
| NC(=O)C(=CNC(N)=S)C(N)=O | > 100 |

system: M14 melanoma; assay: NCI anticancer screen, dose series, 48 h

| Structure (SMILES) | TGI [µM] |
| --- | --- |
| CCCN(CCC)CCc1ccc(OC2=CCN(C)CC2)cc1 | 29.1 |
| O=C1OCN(c2ccccc2)C12CCN(Cc1ccccc1)CC2 | 33.1 |
| Cn1c2ccc([N+](=O)[O-])cc2c(=O)n1Cc1ccccc1F | > 100 |
| Cn1c(=O)c2c3ccccc3n(C)c2n(C)c1=O | > 100 |
| CN(Cc1cnc2nc(N)nc(N)c2n1)c1ccc(C(=O)NCCS(=O)(=O)O)cc1 | > 100 |
| COc1cc(NC(C)c2ccc3c(c2)OCCO3)cc(OC)c1OC (stereo not drawn) | > 100 |
| Cc1cccc2oc3c(CC(=O)O)cccc3c(=O)c12 | > 100 |
| N#CC(C#N)=C1C(=Cc2ccc(OCCCCCCCCCCSSCCCCCCCCCCOc3ccc(C=C4C(=C(C#N)C#N)c5ccccc5C4=C(C#N)C#N)cc3)cc2)C(=C(C#N)C#N)c2ccccc21 | 47.9 |
| CSC1=C(C#N)C(=S)N=C(N)C1C(=O)Nc1ccc(C)cc1 (stereo not drawn) | > 100 |
| O=c1ccn([C@@H]2C[C@H]2CO)c(=O)[nH]1 | > 100 |
| C=C(C)[C@@H]1CCC2=C[C@@H](OC2=O)[C@@H](C(=C)C)C2=CC(C(=O)O)=C(C1)O2 | > 100 |
| CSC(=N/C=C/c1ccccc1)SC | > 100 |
| c1ccc(C(C2=Nc3cccc4cccc(c34)N2)c2ccccc2)cc1 | 65 |
| COC(=O)NC(Nc1ccccn1)(C(F)(F)F)C(F)(F)F | > 100 |
| O=C(OCc1ccccc1)N(CCCCN(CCCNC(=O)C(F)(F)F)C(=O)OCc1ccccc1)CCCNC(=O)C(F)(F)F | > 100 |
| C=CCC1(O)CC(n2cc(C)c(=O)[nH]c2=O)OC1CO[Si](C)(C)C(C)(C)C (stereo not drawn) | > 100 |
| NC(=O)C(=CNC(N)=S)C(N)=O | > 100 |

system: SF-295 CNS; assay: NCI anticancer screen, dose series, 48 h

| Structure (SMILES) | TGI [µM] |
| --- | --- |
| CCCN(CCC)CCc1ccc(OC2=CCN(C)CC2)cc1 | > 100 |
| O=C1OCN(c2ccccc2)C12CCN(Cc1ccccc1)CC2 | 31.1 |
| Cn1c2ccc([N+](=O)[O-])cc2c(=O)n1Cc1ccccc1F | > 100 |
| Cn1c(=O)c2c3ccccc3n(C)c2n(C)c1=O | > 100 |
| CN(Cc1cnc2nc(N)nc(N)c2n1)c1ccc(C(=O)NCCS(=O)(=O)O)cc1 | > 100 |
| COc1cc(NC(C)c2ccc3c(c2)OCCO3)cc(OC)c1OC (stereo not drawn) | > 100 |
| Cc1cccc2oc3c(CC(=O)O)cccc3c(=O)c12 | > 100 |
| N#CC(C#N)=C1C(=Cc2ccc(OCCCCCCCCCCSSCCCCCCCCCCOc3ccc(C=C4C(=C(C#N)C#N)c5ccccc5C4=C(C#N)C#N)cc3)cc2)C(=C(C#N)C#N)c2ccccc21 | 45.7 |
| O=c1c2cccnc2n2n1Cc1ccccc1C2 | > 100 |
| S=c1nc2sc3c(c2c(Nc2ccc(Cl)cc2)[nH]1)CCCC3 | > 100 |
| C=C(C)[C@@H]1CCC2=C[C@@H](OC2=O)[C@@H](C(=C)C)C2=CC(C(=O)O)=C(C1)O2 | > 100 |
| CSC(=N/C=C/c1ccccc1)SC | > 100 |
| c1ccc(C(C2=Nc3cccc4cccc(c34)N2)c2ccccc2)cc1 | 42.8 |
| O=C(OCc1ccccc1)N(CCCCN(CCCNC(=O)C(F)(F)F)C(=O)OCc1ccccc1)CCCNC(=O)C(F)(F)F | > 100 |
| Nc1ncc(Br)c(NCC2(CO)CCC2)n1 | > 100 |
| C=CCC1(O)CC(n2cc(C)c(=O)[nH]c2=O)OC1CO[Si](C)(C)C(C)(C)C (stereo not drawn) | > 100 |
| NC(=O)C(=CNC(N)=S)C(N)=O | > 100 |
